Laboratory results: patent US9144239B2, “Macrocyclic picolinamides as fungicides” (DOW AGROSCIENCES LLC, priority 2012, dated 2015)
Like-named read-outs stand apart in the source and are kept apart here.

What was measured:
[1] = test system: Mycosphaerella graminicola; anamorph: Septoria tritici; test: Fungicidal activity: leaf blotch of wheat (SEPTTR), wheat seedlings; type: in vivo; details: Zymoseptoria tritici
Method: Evaluation of Fungicidal Activity: Leaf Blotch of Wheat (Mycosphaerella Graminicola; Anamorph: Septoria tritici; Bayer Code […]) Technical grades of materials were dissolved in acetone, which were then mixed with nine volumes of water containing 110 ppm Triton X-100. The fungicide solutions were applied onto wheat seedlings using an automated booth sprayer to run-off. All sprayed plants were allowed to air dry prior to further handling. Wheat plants (variety Yuma) were grown from seed in a greenhouse in 50% mineral soil/50% soil-less Metro mix until the first leaf was fully emerged, with 7-10 seedlings per pot. These plants were inoculated with an aqueous spore suspension of Septoria tritici either prior to or after fungicide treatments. After inoculation the plants were kept in 100% relative humidity (one day in a dark dew chamber followed by two to three days in a lighted dew chamber at 20° C.) to permit spores to germinate and infect the leaf. The plants were then transferred to a greenhouse set at 20° C. for disease to develop. When disease symptoms were fully expressed on the 1st leaves of untreated plants, infection levels were assessed on a scale of 0 to 100 percent disease severity. Percent disease control was calculated using the ratio of disease severity on treated plants relative to untreated plants.

[2] = test system: Puccinia triticina; synonym: Puccinia recondita f. sp. tritici; test: Fungicidal activity: wheat brown rust (PUCCRT), wheat seedlings; type: in vivo
Method: Technical grades of materials were dissolved in acetone, which were then mixed with nine volumes of water containing 110 ppm Triton X-100. The fungicide solutions were applied onto wheat seedlings using an automated booth sprayer to run-off. All sprayed plants were allowed to air dry prior to further handling. Wheat plants (variety Yuma) were grown from seed in a greenhouse in 50% mineral soil/50% soil-less Metro mix until the first leaf was fully emerged, with 7-10 seedlings per pot. These plants were inoculated with an aqueous spore suspension of Septoria tritici either prior to or after fungicide treatments. After inoculation the plants were kept in 100% relative humidity (one day in a dark dew chamber followed by two to three days in a lighted dew chamber at 20° C.) to permit spores to germinate and infect the leaf. The plants were then transferred to a greenhouse set at 20° C. for disease to develop. When disease symptoms were fully expressed on the 1st leaves of untreated plants, infection levels were assessed on a scale of 0 to 100 percent disease severity. Percent disease control was calculated using the ratio of disease severity on treated plants relative to untreated plants. Evaluation of Fungicidal Activity: Wheat Brown Rust (Puccinia […]; Synonym: Puccinia recondita f. Sp. Tritici; Bayer Code PUCCRT) Wheat plants (variety Yuma) were grown from seed in a greenhouse in 50% mineral soil/50% soil-less Metro mix until the first leaf was fully emerged, with 7-10 seedlings per pot. These plants were inoculated with an aqueous spore suspension of Puccinia triticina either prior to or after fungicide treatments. After inoculation the plants were kept in a dark dew room at 22° C. with 100% relative humidity overnight to permit spores to germinate and infect the leaf. The plants were then transferred to a greenhouse set at 24° C. for disease to develop. Fungicide formulation, application and disease assessment followed the procedures as described in the Example A.

[3] = 24 h, 100 ppm, 1 Day Protectant, wheat, read-out: Disease Control SEPTTR 1DP
[4] = 72 h, 100 ppm, 3 Day Curative, wheat, read-out: Disease Control SEPTTR 3DC
[5] = 24 h, 100 ppm, 1 Day Protectant, wheat, read-out: Disease Control PUCCRT 1DP
[6] = 72 h, 100 ppm, 3 Day Curative, wheat, read-out: Disease Control PUCCRT 3DC

Row | SMILES | pest or weed control at 100 ppm [1, 3] [%] | pest or weed control at 100 ppm [1, 4] [%] | pest or weed control at 100 ppm [2, 5] [%] | pest or weed control at 100 ppm [2, 6] [%] | pest or weed control at 100 ppm ([1]; 24 h, read-out: Disease Control SEPTTR 1DP) [%] | pest or weed control at 100 ppm ([1]; 72 h, read-out: Disease Control SEPTTR 3DC) [%] | pest or weed control at 100 ppm ([2]; 24 h, read-out: Disease Control PUCCRT 1DP) [%] | pest or weed control at 100 ppm ([2]; 72 h, read-out: Disease Control PUCCRT 3DC) [%]
1 | COc1ccnc(C(=O)N[C@H]2COC[C@@H](OCc3ccccc3)[C@H](OCc3ccccc3)[C@H](C)OC2=O)c1OCOC(C)=O [Compound 40] | 0 to 80 | 0 to 80 | 80 to 100 | 0 to 80 | – | – | – | –
2 | COc1ccnc(C(=O)N[C@@H]2COC[C@@H](OCc3ccccc3)[C@H](OCc3ccccc3)[C@H](C)OC2=O)c1OCOC(C)=O [Compound 41] | 0 to 80 | 0 to 80 | 0 to 80 | – | – | – | – | –
3 | CCCCO[C@H]1COC[C@H](NC(=O)c2nccc(OC)c2O)C(=O)O[C@@H](C)[C@@H]1O [Compound 42, N-((3S,7S,8S,9S)-7-butoxy-8-hydroxy-9-methyl-2-oxo-1,5-dioxonan-3-yl)-3-hydroxy-4-methoxypicolinamide] | 0 to 80 | 0 to 80 | 80 to 100 | 80 to 100 | – | – | – | –
4 | CCCCO[C@H]1COC[C@H](NC(=O)c2nccc(OC)c2O)C(=O)O[C@@H](C)[C@@H]1OC(=O)C(C)C [Compound 46, (3S,6S,7S,8S)-8-butoxy-3-(3-hydroxy-4-methoxypicolinamido)-6-methyl-4-oxo-1,5-dioxonan-7-yl isobutyrate] | – | – | – | – | 80 to 100 | 80 to 100 | 80 to 100 | 80 to 100
5 | COc1ccnc(C(=O)N[C@H]2COC[C@H](OCc3ccccc3)[C@@H](OCc3ccccc3)[C@@H](C)OC2=O)c1O [Compound 49] | 0 to 80 | 0 to 80 | 0 to 80 | 0 to 80 | – | – | – | –
6 | CCCCO[C@H]1COC[C@H](NC(=O)c2nccc(OC)c2OCOC(C)=O)C(=O)O[C@@H](C)[C@@H]1OCC(C)C [Compound 50] | 80 to 100 | 80 to 100 | 80 to 100 | 80 to 100 | – | – | – | –
7 | COc1ccnc(C(=O)N[C@H]2COC[C@H](OCc3ccccc3)[C@@H](OCc3ccccc3)[C@@H](C)OC2=O)c1OCOC(C)=O [Compound 51] | 0 to 80 | 0 to 80 | 0 to 80 | 0 to 80 | – | – | – | –
8 | COc1ccnc(C(=O)N[C@H]2COC[C@H](OCCCc3ccccc3)[C@@H](OCCCc3ccccc3)[C@H](C)OC2=O)c1O [Compound 59] | 80 to 100 | 0 to 80 | 80 to 100 | 80 to 100 | – | – | – | –
9 | CCC(C)(C)O[C@H]1[C@H](C)OC(=O)[C@@H](NC(=O)c2nccc(OC)c2O)COC[C@@H]1OCC(C)C [Compound 79] | 80 to 100 | 80 to 100 | 80 to 100 | 80 to 100 | – | – | – | –
10 | COc1ccnc(C(=O)N[C@H]2COC[C@H](Oc3cc(C)cc(C)c3)[C@@H](Oc3cc(C)cc(C)c3)[C@H](C)OC2=O)c1O [Compound 198] | 80 to 100 | – | 0 to 80 | – | – | – | – | –
11 | COc1ccc(O[C@H]2[C@H](C)OC(=O)[C@@H](NC(=O)c3nccc(OC)c3O)COC[C@@H]2OC(=O)C(C)C)cc1 [Compound 199] | 0 to 80 | – | 80 to 100 | – | – | – | – | –
12 | COc1ccc(O[C@H]2[C@H](C)OC(=O)[C@@H](NC(=O)c3nccc(OC)c3O)COC[C@@H]2Oc2ccc(OC)cc2)cc1 [Compound 201] | 80 to 100 | 0 to 80 | 80 to 100 | – | – | – | – | –
13 | CCCO[C@H]1COC[C@H](NC(=O)c2nccc(OC)c2O)C(=O)O[C@@H](C)[C@@H]1Oc1ccccc1 [Compound 202] | 80 to 100 | 80 to 100 | 80 to 100 | 80 to 100 | – | – | – | –
